# Values quoted from earlier work, collected in PMC4810081, “Venetoclax (ABT-199) Might Act as a Perpetrator in Pharmacokinetic Drug–Drug Interactions” (Pharmaceutics, 2016).
# Target: T1, BCRP (Homo sapiens, UniProt Q9UNQ0)
# T1 construct: expressed in transfected cells; host or cells: MDCKII-BCRP (gift of A. H. Schinkel and P. Borst)
# Parameters: method as in PMID 20222053
# Settings: control compound; read-out: IC50 BCRP inhibition, control compound; cited from earlier work
# T1 sequence (Q9UNQ0 whole entry): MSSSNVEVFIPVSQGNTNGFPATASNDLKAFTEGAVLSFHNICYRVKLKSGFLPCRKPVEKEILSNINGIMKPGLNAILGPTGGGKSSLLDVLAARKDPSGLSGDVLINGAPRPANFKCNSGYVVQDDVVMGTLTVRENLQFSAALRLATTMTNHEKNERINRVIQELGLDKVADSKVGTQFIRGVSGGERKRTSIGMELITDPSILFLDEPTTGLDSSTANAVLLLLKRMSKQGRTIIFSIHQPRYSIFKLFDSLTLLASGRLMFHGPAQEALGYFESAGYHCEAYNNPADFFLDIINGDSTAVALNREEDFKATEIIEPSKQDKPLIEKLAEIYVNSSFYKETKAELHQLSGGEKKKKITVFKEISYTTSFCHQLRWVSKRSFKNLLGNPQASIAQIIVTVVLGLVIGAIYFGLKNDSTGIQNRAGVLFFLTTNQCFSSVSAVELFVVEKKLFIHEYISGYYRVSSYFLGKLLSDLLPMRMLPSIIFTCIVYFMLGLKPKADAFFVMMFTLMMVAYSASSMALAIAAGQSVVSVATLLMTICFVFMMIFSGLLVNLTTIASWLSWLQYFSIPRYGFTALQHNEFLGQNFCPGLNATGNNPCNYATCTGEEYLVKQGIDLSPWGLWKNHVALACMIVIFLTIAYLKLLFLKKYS
compound,measurement,value
"COc1ccc2c3c([nH]c2c1)[C@H](C=C(C)C)N1C(=O)[C@@H]2CCCN2C(=O)[C@@H]1C3 [FTC, fumitremorgin C]",IC50,700 ± 300 nM
